Literature values in publication PMC5525545 (Nature, 2017).
Values belong to the molecule of their own block, whether it stands above or below them.

How the values were obtained:
[1] = tested on: AngII-induced neuronal excitability
[2] = several neuropathic pain models in rodents
[3] = patients with post-herpetic neuralgia
[4] = tested on: AT2R; settings: activation of AT2R

oral bioavailability [2]: exhibits oral bioavailability
Structure (SMILES): Cc1cc(Cn2cnc3c2C[C@@H](C(=O)O)N(C(=O)C(c2ccccc2)c2ccccc2)C3)ccc1N(C)C [PD123319]
effect on AngII-induced neuronal excitability [1]: blocks AngII-induced neuronal excitability

Structure (SMILES): COc1ccc2c(c1OCc1ccccc1)C[C@@H](C(=O)O)N(C(=O)C(c1ccccc1)c1ccccc1)C2 [EMA401]
efficacy in phase II clinical trials [3]: demonstrated efficacy

Structure (SMILES): CCCCOC(=O)NS(=O)(=O)c1sc(CC(C)C)cc1-c1ccc(Cn2ccnc2)cc1 [Compound 21]
beneficial in vivo effects [4]: inducing pressure natriuresis, lowering blood pressure, conferring acute vaso-relaxation, and exhibiting organ protective effects
